Results on 1 molecule are retold here after paper PMC9503112, “Synthesis, Molecular Docking, In Vitro and In Vivo Studies of Novel Dimorpholinoquinazoline-Based Potential Inhibitors of PI3K/Akt/mTOR Pathway” (International Journal of Molecular Sciences, 2022).

For data set [1], the target named is T1, recombinant PI3K (p110α/p85α) (Homo sapiens, UniProt P42336).
T1 construct: purchased Millipore 14-602
In words: PI3K inhibition assay (HTRF). The class given is biochemical. The following applies: FRET/HTRF detection; approximate; read-out: IC50 PI3Kα. The method, then: The PI 3-Kinase (Class I) HTRF Assay Kit (Cat# 33-016 from Millipore) was used to determine the activity of recombinant PI3K (p110α/p85α) human (Cat# 14-602 from Millipore). The kit was supplemented with ATP (Cat# A26209 from Sigma-Aldrich, St. Louis, MI, USA), DL-dithiothreitol (Cat# S-[…]-1 from Sigma-Aldrich), and Wortmannin inhibitor (Cat# 12-338 from Millipore, Burlington, MA, USA). The latter was used at 0.1 μM concentration. For measurements, a Victor ×5 plate reader (PerkinElmer, 2030, Waltham, MA, USA) was used in TRF mode with excitation at 340 nm. Fluorescence emission was recorded at 613 and 670 nm in a 384-well plate (Cat# S-CLS3658 from Sigma-Aldrich) at a time interval of 150-350 μs. The enzymatic reaction and the determination of its products were carried out according to the recommendations of the reagent kit manufacturer (Millipore) in two wells for each sample. In calculations, readings in parallel wells were averaged. The calculations were made according to the recommendations of the equipment manufacturer.
In general terms: Time-resolved FRET reads energy transfer from a long-lived donor to a nearby acceptor.

A further data set concerns MDA-MB-231. In words: Antiproliferative activity, MTT assay. In kind it is cell-based, human. The protocol: (§1) Human breast cancer MCF7, MDA-MB-231, SkBr-3 (purchased from the ATCC collection), human keratinocytes HaCaT, murine fibroblasts L929 and macrophages J774 cells (Collection of Shemyakin-Ovchinnikov Institute of Bioorganic Chemistry RAS) were cultured in standard DMEM or RPMI-1640 medium (ThermoScientific, Waltham, MA, USA) supplemented with 10% fetal bovine serum (FBS, Cytiva, Marlborough, MA, USA) at 37 °C, 5 % CO2 and 80–85% humidity (NuAir CO2 incubator). The cell growth was evaluated by MTT (3-[4,5-dimethylthiazol-2-yl]-2,5-diphenyltetrazolium bromide) test. Cells were seeded at a density of 5 × 10^3 cells per well in 96-well flat-bottomed plates (TPP). The compounds were dissolved in DMSO (AppliChem) to 10 mM before the experiments, and then the resulting solutions were diluted by the medium to the required concentrations. Solutions of the tested compounds with different concentrations in 100 μL of the medium were added and the cells were grown for 72 h. MTT (10 μL/well, 5 mg/mL) was added for the final 3 h. The formazan purple crystals were dissolved in DMSO (100 μL per well). The absorbance of solutions was measured at 540 nm with a MultiScan reader (ThermoFisher). Results were analyzed by Excel package (Microsoft). The inhibition of proliferation (inhibitory index) was calculated as [1–(ODexperiment/ODcontrol)], where OD was MTT optical density. IC50 (Table 1) was determined as the concentration giving 50% of inhibition in the comparison with it […].
(Tetrazolium assays rely on reduction of a dye to a coloured formazan, in cell work by metabolically active cells.)

The nature of another data set: Solubility. The class given is physicochemical.
The test system of another data set is macrophages J774. In words: Antiproliferative activity, MTT assay. The class given is cell-based, murine. The following applies: Mus musculus, 72 h, standard deviations within 50%. The protocol:
as §1

Data set [2] deals with PI3K/Akt/mTOR signaling pathway in MCF7 cells. As to the kind of experiment: Immunoblotting of PI3K/Akt/mTOR phosphorylation. The class given is cell-based, human. The protocol:
MCF7 cells were seeded onto 100 mm dishes (Corning) and cultivated for 24 h. Compound 7c was added at different concentrations while the reference compound wortmannin (Selleckchem, Houston, TX, USA) was used at 500 nM. The cells were harvested after 72 h of growth with the compounds. To prepare cell extracts, MCF7 cells were twice washed in phosphate buffer and incubated for 10 min on ice in the modified lysis buffer containing 50 mM Tris-HCl, pH 7.5, 0.5% Igepal CA-630, 150 mM NaCl, 1 mM EDTA, 1 mM DTT, 1 mM PMSF, 0.1 mM sodium orthovanadate and aprotinin, leupeptin, pepstatin (1 µg/mL each). The protein content was determined by the Bradford method. Cell lysates were separated in 10% SDS-PAGE under reducing conditions, transferred to a nitrocellulose membrane (GE HealthCare, Chicago, IL, USA), and processed according to a standard protocol. To prevent nonspecific absorption, the membranes were treated with 5% nonfat milk solution in TBS buffer (20 mM Tris, 500 mM NaCl, pH 7.5) with 0.1% Tween-20 and then incubated with primary antibodies (Cell Signaling Technology, Danvers, MA, USA) overnight at 4 °C. […] Signals were detected using the ECL reagent using the ImageQuant LAS4000 system (GE HealthCare, Chicago, IL, USA).
The signals of phospho-proteins to total ones were calculated using the ImageJ program from inverted images of the bands.

Several values for one entry are separate records, joined by “and”; a condition that tells them apart may be missing. Identical values can stand only once.

T1 sequence (P42336 whole entry): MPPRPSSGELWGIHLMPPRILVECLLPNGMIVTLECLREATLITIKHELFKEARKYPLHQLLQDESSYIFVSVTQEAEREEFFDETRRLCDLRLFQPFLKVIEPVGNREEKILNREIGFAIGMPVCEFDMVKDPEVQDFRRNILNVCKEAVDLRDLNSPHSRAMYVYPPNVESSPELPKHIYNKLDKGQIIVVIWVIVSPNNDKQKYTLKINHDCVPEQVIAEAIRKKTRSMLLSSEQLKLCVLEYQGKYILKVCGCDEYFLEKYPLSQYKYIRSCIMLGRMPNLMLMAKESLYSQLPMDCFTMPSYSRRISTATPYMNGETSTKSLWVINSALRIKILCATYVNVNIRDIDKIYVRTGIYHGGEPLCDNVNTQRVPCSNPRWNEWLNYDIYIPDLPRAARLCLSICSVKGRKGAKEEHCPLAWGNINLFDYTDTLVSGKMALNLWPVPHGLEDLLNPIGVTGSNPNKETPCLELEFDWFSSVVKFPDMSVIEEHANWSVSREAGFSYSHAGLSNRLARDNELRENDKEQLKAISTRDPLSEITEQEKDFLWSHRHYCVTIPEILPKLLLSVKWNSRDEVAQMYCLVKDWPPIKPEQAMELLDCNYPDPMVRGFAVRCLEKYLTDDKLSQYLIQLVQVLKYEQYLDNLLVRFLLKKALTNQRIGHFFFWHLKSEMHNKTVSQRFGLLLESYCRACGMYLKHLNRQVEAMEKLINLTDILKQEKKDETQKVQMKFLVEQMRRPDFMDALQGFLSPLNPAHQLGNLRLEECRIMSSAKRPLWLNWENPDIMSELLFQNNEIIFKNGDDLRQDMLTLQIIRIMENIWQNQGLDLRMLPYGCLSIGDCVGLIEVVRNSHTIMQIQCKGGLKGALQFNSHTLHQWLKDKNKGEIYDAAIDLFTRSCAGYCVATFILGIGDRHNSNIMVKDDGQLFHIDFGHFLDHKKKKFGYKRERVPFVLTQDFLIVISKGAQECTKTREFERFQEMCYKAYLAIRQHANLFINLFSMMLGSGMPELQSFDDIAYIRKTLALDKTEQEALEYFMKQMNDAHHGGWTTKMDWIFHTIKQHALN
T1 sequence (P27986 whole entry partner): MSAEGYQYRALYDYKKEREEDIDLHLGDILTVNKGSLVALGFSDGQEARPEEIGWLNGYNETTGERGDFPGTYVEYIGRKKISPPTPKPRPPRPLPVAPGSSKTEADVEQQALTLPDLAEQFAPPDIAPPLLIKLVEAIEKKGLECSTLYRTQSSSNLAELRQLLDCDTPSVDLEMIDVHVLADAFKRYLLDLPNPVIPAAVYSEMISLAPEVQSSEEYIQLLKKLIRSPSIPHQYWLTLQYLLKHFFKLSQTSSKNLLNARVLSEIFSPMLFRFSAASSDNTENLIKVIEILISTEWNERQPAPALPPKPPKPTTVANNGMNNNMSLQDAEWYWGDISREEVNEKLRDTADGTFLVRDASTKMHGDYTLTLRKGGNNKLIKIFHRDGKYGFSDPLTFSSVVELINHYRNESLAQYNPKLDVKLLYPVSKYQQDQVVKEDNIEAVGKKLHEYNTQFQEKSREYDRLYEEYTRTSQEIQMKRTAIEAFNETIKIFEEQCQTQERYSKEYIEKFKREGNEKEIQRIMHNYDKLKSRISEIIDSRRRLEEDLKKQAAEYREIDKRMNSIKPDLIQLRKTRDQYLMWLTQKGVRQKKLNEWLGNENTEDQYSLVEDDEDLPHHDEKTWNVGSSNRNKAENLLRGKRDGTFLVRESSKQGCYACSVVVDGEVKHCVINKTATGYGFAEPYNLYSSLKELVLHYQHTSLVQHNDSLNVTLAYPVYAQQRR

For `O=C(NCCc1cccnc1)Nc1ccc(-c2ccc3c(N4CCOCC4)nc(N4CCOCC4)nc3c2)cc1` [Compound 7c, 1-(4-(2,4-Dimorpholinoquinazolin-7-yl)phenyl)-3-(2-(pyridin-3-yl)ethyl)urea], the IC50 (commonly the concentration at which inhibition is half-maximal) in data set [1] is approximately 500 µM; with MDA-MB-231 (Homo sapiens, MDA-MB-231, MTT, 72 h, standard deviations within 50%), 1 µM; in the data set with macrophages J774 it was 0.4 µM. Further, the “Toxicity for MDA-MB-231 (wild type PI3K) lower than for MCF7 (mutant PI3K)” value in the data set with MDA-MB-231 (MDA-MB-231 versus MCF7) was 5 times. In “Solubility”, the Solubility entry was “soluble only in DMSO”. In addition, the “Concentration inhibiting phosphorylation of Akt, mTOR, S6K (PI3K/Akt/mTOR proteins)” value in data set [2] is 125 to 250 nM and 250 to 500 nM.
